US6310210A, “Camptothecin derivatives” (Kabushiki Kaisha Yakult Honsha, priority 1997, dated 2001)
Converted amounts (≈) assume the structure as drawn. Where a name gives a salt, the structure may show the parent alone.

How the values were obtained:
[1] = Solubility of each hydrochloride in purified water; assay type: physicochemical
Procedure: A corresponding camptothecin-21-(2-dimethylamino) ethylamide derivative (100-200 mg) was added with an aqueous 0.1 N HCl solution (1.05 eq.) and dissolved, if necessary, further by adding purified water. The solution was filtered using MILLEX-GV ([…] Filter Unit), and the filtrate was lyophilized to give the desired hydrochloride.
Table 1: Solubility of each hydrochloride in purified water

mouse leukemia L1210 = test: Anti-tumor activity: life prolonging effect in mice transplanted intraperitoneally with mouse leukemia L1210 (T/C%); assay type: in vivo; settings: for Anti-tumor activity (T/C%): i.p. day 1, 5 and 9; for Anti-tumor activity: fraction in parentheses after T/C% (meaning not given): group of six mice
Procedure: 5×10^5 cells of mouse leukemia L1210 were transplanted intraperitoneally to a group of six female CDP1 mice (7 weeks old, body weight 17-19 g). A test substance was administered intraperitoneally on day 1, 5 and 9, and its life prolonging effect was observed. In a case of the administration of a test substance as an acid addition salt, it was dissolved in purified water. The total administration amount was 1.56-400 mg/kg. The anti-tumor activity was expressed by the value (T/C%) in which the ratio of the mean survival days of a drug administered group (T) to the mean survival days of a not administered group (C) is multiplied by 100.

[2] = Stability test in water at each pH (phosphate buffer, HPLC); assay type: physicochemical; settings: for Amount of the compound in test solution: room temperature (about 26° C.)
Procedure: 1) Preparation of calibration curve:
1.05 mg of the compound 1 and 1.10 mg of the compound A (Note) were measured, dissolved in acetonitrile 10 ml to give a standard solution. 20 μl of the standard solution was tested by HPLC method (procedure condition 1). The peak area of the compound 1 and the compound A (Note), which is obtained from the chromatograph of the standard solution is measured by an automatic integration method, and the obtained area is plotted against an amount of the compound 1 and the compound A (2.1 μg and 2.2 μg) by 20 μl to prepare a calibration curve.
[HPLC method, procedure condition 1]
Column: Inertsil ODS-3 (5-250), 40 deg.
Mobile phase: 0.01 M potassium dihydrogenphosphate-acetonitrile (3:1)
Detection: UV absorptiometer (254 nm)
About 1 mg (×3) of the compound 1 were measured, dissolved adding a phosphate buffer 10 ml of pH 10.0, 7.0 or 5.4, stirred at room temperature (about 26° C.) to make a test solution. As to each 20 μl of the test solution at the time of dissolution, 3 hr later and 24 hr later, the tests were carried out by the HPLC method (procedure condition 1). The amounts of the compound 1 were measured from the obtained area. The amounts of the compound A in each pH were measured.
The amounts (μg/ml) of the compound 1 and the compound A at the time of dissolution, 3 hr later and 24 hr later in each pH are shown in Table 7.

CCc1c2c(nc3ccccc13)-c1cc([C@@](O)(CC)C(=O)NCCN(C)C)c(COC(=O)Nc3cccc(F)c3)c(=O)n1C2 [Compound 9, 7-Ethyl-17-(3-fluorophenylcarbamoyloxy)-camptothecin-21-(2-dimethylamino)ethylamide]
solubility [1]: ~28 mg/mL (≈ 46.5 mM)

CCCNC(=O)OCc1c([C@@](O)(CC)C(=O)NCCN(C)C)cc2n(c1=O)Cc1c-2nc2ccccc2c1CC [Compound 3, 7-Ethyl-17-n-propylcarbamoyloxycamptothecin-21-(2-dimethylamino)ethylamide]
Anti-tumor activity (T/C%) (mouse leukemia L1210; Table 2, total dose 3.13 mg/kg): 100% | Anti-tumor activity (T/C%) (mouse leukemia L1210; Table 2, total dose 6.25 mg/kg): 100% | Anti-tumor activity (T/C%) (mouse leukemia L1210; Table 2, total dose 12.5 mg/kg): 139% | Anti-tumor activity (T/C%) (mouse leukemia L1210; Table 2, total dose 25 mg/kg): 142% | Anti-tumor activity (T/C%) (mouse leukemia L1210; Table 2, total dose 50 mg/kg): 147% | Anti-tumor activity (T/C%) (mouse leukemia L1210; Table 2, total dose 100 mg/kg): 147% | Anti-tumor activity (T/C%) (mouse leukemia L1210; Table 2, total dose 200 mg/kg): 147% | solubility [1]: ~11 mg/mL (≈ 20 mM)

CCc1c2c(nc3ccccc13)-c1cc([C@@](O)(CC)C(=O)NCCN(C)C)c(COC(=O)OC)c(=O)n1C2 [Compound 18, 7-Ethyl-17-methoxycarbonyloxycamptothecin-21-(2-dimethylamino)ethylamide]
solubility [1]: ≥ 50 mg/mL

CCc1c2c(nc3ccccc13)-c1cc([C@@](O)(CC)C(=O)NCCN(C)C)c(COC(=O)N(C)C)c(=O)n1C2 [Compound 14, 17-Dimethylcarbamoyloxy-7-ethylcamptothecin-21-(2-dimethylamino)ethylamide]
Anti-tumor activity (T/C%) (mouse leukemia L1210; Table 4, total dose 3.13 mg/kg): 118% | Anti-tumor activity (T/C%) (mouse leukemia L1210; Table 4, total dose 6.25 mg/kg): 121% | Anti-tumor activity (T/C%) (mouse leukemia L1210; Table 4, total dose 12.5 mg/kg): 126% | Anti-tumor activity (T/C%) (mouse leukemia L1210; Table 4, total dose 25 mg/kg): 136% | Anti-tumor activity (T/C%) (mouse leukemia L1210; Table 4, total dose 50 mg/kg): 149% | Anti-tumor activity (T/C%) (mouse leukemia L1210; Table 4, total dose 100 mg/kg): 218% | Anti-tumor activity: fraction in parentheses after T/C% (meaning not given) (mouse leukemia L1210; Table 4, total dose 200 mg/kg): 4/6 | Anti-tumor activity (T/C%) (mouse leukemia L1210; Table 4, total dose 200 mg/kg): 523% | solubility [1]: ~50 mg/mL (≈ 93.3 mM)

CCc1c2c(nc3ccccc13)-c1cc([C@@](O)(CC)C(=O)NCCN(C)C)c(COC(=O)Nc3cccc4ccccc34)c(=O)n1C2 [Compound 11, 7-Ethyl-17-(1-naphthylcarbamoyloxy)-camptothecin-21-(2-dimethylamino)ethylamide]
solubility [1]: ~5 mg/mL (≈ 7.89 mM)

CCc1c2c(nc3ccccc13)-c1cc([C@@](O)(CC)C(=O)NCCN(C)C)c(COC(=O)Nc3ccc(F)cc3)c(=O)n1C2 [Compound 10, 7-Ethyl-17-(4-fluorophenylcarbamoyloxy)-camptothecin-21-(2-dimethylamino)ethylamide]
Anti-tumor activity (T/C%) (mouse leukemia L1210; Table 4, total dose 3.13 mg/kg): 115% | Anti-tumor activity (T/C%) (mouse leukemia L1210; Table 4, total dose 6.25 mg/kg): 118% | Anti-tumor activity (T/C%) (mouse leukemia L1210; Table 4, total dose 12.5 mg/kg): 123% | Anti-tumor activity (T/C%) (mouse leukemia L1210; Table 4, total dose 25 mg/kg): 136% | Anti-tumor activity (T/C%) (mouse leukemia L1210; Table 4, total dose 50 mg/kg): 174% | Anti-tumor activity (T/C%) (mouse leukemia L1210; Table 4, total dose 100 mg/kg): 221% | Anti-tumor activity (T/C%) (mouse leukemia L1210; Table 4, total dose 200 mg/kg): 310% | solubility [1]: ~7 mg/mL (≈ 11.6 mM)

CCc1c2c(nc3ccccc13)-c1cc(C(O)(CC)C(=O)[O-])c(CO)c(=O)n1C2.[Na+] (stereo not drawn) [Reference Compound, 7-ethylcamptothecin sodium salt, reference compound]
Anti-tumor activity (T/C%) (mouse leukemia L1210; Table 2, total dose 3.13 mg/kg): 129% | Anti-tumor activity (T/C%) (mouse leukemia L1210; Table 2, total dose 6.25 mg/kg): 142% | Anti-tumor activity (T/C%) (mouse leukemia L1210; Table 2, total dose 12.5 mg/kg): 153% | Anti-tumor activity (T/C%) (mouse leukemia L1210; Table 2, total dose 25 mg/kg): 211% | Anti-tumor activity (T/C%) (mouse leukemia L1210; Table 2, total dose 50 mg/kg): 266% | Anti-tumor activity: fraction in parentheses after T/C% (meaning not given) (mouse leukemia L1210; Table 2, total dose 100 mg/kg): 2/6 | Anti-tumor activity (T/C%) (mouse leukemia L1210; Table 2, total dose 100 mg/kg): 339% | Anti-tumor activity: fraction in parentheses after T/C% (meaning not given) (mouse leukemia L1210; Table 2, total dose 200 mg/kg): 1/6 | Anti-tumor activity (T/C%) (mouse leukemia L1210; Table 2, total dose 200 mg/kg): 303% | Anti-tumor activity (T/C%) (mouse leukemia L1210; Table 4, total dose 3.13 mg/kg): 126% | Anti-tumor activity (T/C%) (mouse leukemia L1210; Table 4, total dose 6.25 mg/kg): 146% | Anti-tumor activity (T/C%) (mouse leukemia L1210; Table 4, total dose 12.5 mg/kg): 151% | Anti-tumor activity (T/C%) (mouse leukemia L1210; Table 4, total dose 25 mg/kg): 215% | Anti-tumor activity (T/C%) (mouse leukemia L1210; Table 4, total dose 50 mg/kg): 249% | Anti-tumor activity: fraction in parentheses after T/C% (meaning not given) (mouse leukemia L1210; Table 4, total dose 100 mg/kg): 4/6 | Anti-tumor activity (T/C%) (mouse leukemia L1210; Table 4, total dose 100 mg/kg): 513% | Anti-tumor activity: fraction in parentheses after T/C% (meaning not given) (mouse leukemia L1210; Table 4, total dose 200 mg/kg): 1/6 | Anti-tumor activity (T/C%) (mouse leukemia L1210; Table 4, total dose 200 mg/kg): 362%

CCNC(=O)OCc1c([C@@](O)(CC)C(=O)NCCN(C)C)cc2n(c1=O)Cc1c-2nc2ccccc2c1CC [Compound 2, 7-Ethyl-17-ethylcarbamoyloxycamptothecin-21-(2-dimethylamino)ethylamide]
solubility [1]: ~14 mg/mL (≈ 26.1 mM)

CCCCOC(=O)OCc1c([C@@](O)(CC)C(=O)NCCN(C)C)cc2n(c1=O)Cc1c-2nc2ccccc2c1CC [Compound 21, 17-n-Butoxycarbonyloxy-7-ethyl-camptothecin-21-(2l-dimethylamino)ethylamide]
solubility [1]: ≥ 54 mg/mL

CCc1c2c(nc3ccccc13)-c1cc([C@@](O)(CC)C(=O)NCCN(C)C)c(COC(=O)N3CCN(CC(=O)NC(C)C)CC3)c(=O)n1C2 [Compound 16, 7-Ethyl-17-(4-isopropylaminocarbonylmethyl-piperazino)-carbamoyloxy-camptothecin-21-(2-dimethylamino)ethylamide]
solubility [1]: ≥ 33 mg/mL

CCc1c2c(nc3ccccc13)-c1cc([C@@](O)(CC)C(=O)NCCN(C)C)c(COC(C)=O)c(=O)n1C2 [Compound A, 7-Ethyl-17-acetoxycamptothecin-21-(2-dimethylamino)ethylamide hydrochloride, reference compound]
Amount of the compound in test solution ([2]; pH 5.4, 3 hr later): 126 µg/mL | Amount of the compound in test solution ([2]; pH 5.4, 24 hr later): 124 µg/mL | Amount of the compound in test solution ([2]; pH 5.4, at the time of dissolution): 126 µg/mL | Amount of the compound in test solution ([2]; pH 7.0, 3 hr later): 110 µg/mL | Amount of the compound in test solution ([2]; pH 7.0, 24 hr later): 107 µg/mL | Amount of the compound in test solution ([2]; pH 7.0, at the time of dissolution): 110 µg/mL | Amount of the compound in test solution ([2]; pH 10.0, 3 hr later): 79 µg/mL | Amount of the compound in test solution ([2]; pH 10.0, 24 hr later): 16 µg/mL | Amount of the compound in test solution ([2]; pH 10.0, at the time of dissolution): 102 µg/mL | degraded at 24 h ([2]; phosphate buffer, pH 10.0, after 24 hr, read-out: hydrolyzed in the aqueous solution): 84%

CCCCNC(=O)OCc1c([C@@](O)(CC)C(=O)NCCN(C)C)cc2n(c1=O)Cc1c-2nc2ccccc2c1CC [Compound 5, 17-n-Butylcarbamoyloxy-7-ethylcamptothecin-21-(2-dimethylamino)ethylamide]
solubility [1]: ~10 mg/mL (≈ 17.7 mM)

CCOC(=O)OCc1c([C@@](O)(CC)C(=O)NCCN(C)C)cc2n(c1=O)Cc1c-2nc2ccccc2c1CC [Compound 19, 7-Ethyl-17-ethoxycarbonyloxycamptothecin-21-(2-dimethylamino)ethylamide]
solubility [1]: ≥ 52 mg/mL

CCc1c2c(nc3ccccc13)-c1cc([C@@](O)(CC)C(=O)NCCN(C)C)c(COC(=O)Nc3ccccc3F)c(=O)n1C2 [Compound 8, 7-Ethyl-17-(2-fluorophenylcarbamoyloxy)-camptothecin-21-(2-dimethylamino)ethylamide]
solubility [1]: ~11 mg/mL (≈ 18.3 mM)

CCCOC(=O)OCc1c([C@@](O)(CC)C(=O)NCCN(C)C)cc2n(c1=O)Cc1c-2nc2ccccc2c1CC [Compound 20, 7-Ethyl-17-n-propoxycarbonyloxycamptothecin-21-(2-dimethylamino)ethylamide]
solubility [1]: ≥ 52 mg/mL

CCc1c2c(nc3ccccc13)-c1cc([C@@](O)(CC)C(=O)NCCN(C)C)c(COC(=O)N(CC)CC)c(=O)n1C2 [Compound 15, 17-Diethylcarbamoyloxy-7-ethylcamptothecin-21-(2-dimethylamino)ethylamide]
solubility [1]: ~53 mg/mL (≈ 94 mM)

CCc1c2c(nc3ccccc13)-c1cc([C@@](O)(CC)C(=O)NCCN(C)C)c(COC(=O)NC3CCCCC3)c(=O)n1C2 [Compound 6, 7-Ethyl-17-c-hexylcarbamoyloxycamptothecin-21-(2-dimethylamino)ethylamide]
solubility [1]: ~50 mg/mL (≈ 84.8 mM)

CCc1c2c(nc3ccccc13)-c1cc([C@@](O)(CC)C(=O)NCCN(C)C)c(COC(=O)Nc3ccccc3)c(=O)n1C2 [Compound 7, 7-Ethyl-17-phenylcarbamoyloxycamptothecin-21-(2-dimethylamino)ethylamide]
solubility [1]: ~15 mg/mL (≈ 25.7 mM)
